According to the NIST ThermoML archive (doi:10.1021/je900690d):

Experiment: mean ionic activity coefficient (dimensionless); mn = molality of the nth substance listed, in mol/kg
Conditions: 101 kPa, Liquid, Electrochemical Cell

[Cl-].[K+] [potassium chloride] + O
Conditions | mean ionic activity coefficient
278.15 K, m1 = 0.0025 | 0.9474
278.15 K, m1 = 0.0054 | 0.9254
278.15 K, m1 = 0.0083 | 0.91
278.15 K, m1 = 0.014 | 0.8876
278.15 K, m1 = 0.0224 | 0.8637
278.15 K, m1 = 0.034 | 0.8398
278.15 K, m1 = 0.051 | 0.8137
278.15 K, m1 = 0.0752 | 0.7863
278.15 K, m1 = 0.1147 | 0.754
278.15 K, m1 = 0.1839 | 0.7149
278.15 K, m1 = 0.277 | 0.6787
278.15 K, m1 = 0.3883 | 0.6474
278.15 K, m1 = 0.5559 | 0.6129
278.15 K, m1 = 0.7102 | 0.5888
278.15 K, m1 = 0.8997 | 0.5653
278.15 K, m1 = 1.063 | 0.5488
278.15 K, m1 = 1.246 | 0.5333
278.15 K, m1 = 1.405 | 0.522
278.15 K, m1 = 1.547 | 0.5131
288.15 K, m1 = 0.0026 | 0.946
288.15 K, m1 = 0.005 | 0.9269
288.15 K, m1 = 0.0077 | 0.9118
288.15 K, m1 = 0.0129 | 0.8901
288.15 K, m1 = 0.0183 | 0.8733
288.15 K, m1 = 0.026 | 0.8543
288.15 K, m1 = 0.0362 | 0.8346
288.15 K, m1 = 0.0512 | 0.8123
288.15 K, m1 = 0.0744 | 0.7864
288.15 K, m1 = 0.1053 | 0.7607
288.15 K, m1 = 0.1534 | 0.7316
288.15 K, m1 = 0.2433 | 0.6945
288.15 K, m1 = 0.3142 | 0.6736
288.15 K, m1 = 0.4008 | 0.6536
288.15 K, m1 = 0.506 | 0.6346
288.15 K, m1 = 0.6305 | 0.6167
288.15 K, m1 = 0.7893 | 0.5987
288.15 K, m1 = 0.9633 | 0.5828
288.15 K, m1 = 1.142 | 0.5695
288.15 K, m1 = 1.301 | 0.5594
288.15 K, m1 = 1.44 | 0.5515
288.15 K, m1 = 1.567 | 0.545
298.15 K, m1 = 0.0025 | 0.9465
298.15 K, m1 = 0.0049 | 0.9271
298.15 K, m1 = 0.0077 | 0.9114
298.15 K, m1 = 0.0132 | 0.8888
298.15 K, m1 = 0.019 | 0.8713
298.15 K, m1 = 0.0272 | 0.8519
298.15 K, m1 = 0.0384 | 0.8318
298.15 K, m1 = 0.0529 | 0.8116
298.15 K, m1 = 0.0731 | 0.7899
298.15 K, m1 = 0.1027 | 0.766
298.15 K, m1 = 0.1458 | 0.7404
298.15 K, m1 = 0.2002 | 0.7169
298.15 K, m1 = 0.2643 | 0.6961
298.15 K, m1 = 0.3687 | 0.6714
298.15 K, m1 = 0.5383 | 0.6442
298.15 K, m1 = 0.7187 | 0.6245
298.15 K, m1 = 0.8905 | 0.6109
298.15 K, m1 = 1.09 | 0.599
298.15 K, m1 = 1.24 | 0.5921
298.15 K, m1 = 1.398 | 0.5862
308.15 K, m1 = 0.0025 | 0.9451
308.15 K, m1 = 0.005 | 0.9256
308.15 K, m1 = 0.0073 | 0.9123
308.15 K, m1 = 0.0099 | 0.9007
308.15 K, m1 = 0.0151 | 0.8818
308.15 K, m1 = 0.0226 | 0.8616
308.15 K, m1 = 0.0332 | 0.8402
308.15 K, m1 = 0.0491 | 0.8165
308.15 K, m1 = 0.075 | 0.7889
308.15 K, m1 = 0.1006 | 0.7687
308.15 K, m1 = 0.1313 | 0.7499
308.15 K, m1 = 0.1962 | 0.7209
308.15 K, m1 = 0.2752 | 0.6962
308.15 K, m1 = 0.3636 | 0.6759
308.15 K, m1 = 0.4739 | 0.657
308.15 K, m1 = 0.6044 | 0.6402
308.15 K, m1 = 0.7598 | 0.6252
308.15 K, m1 = 0.9162 | 0.6138
308.15 K, m1 = 1.087 | 0.6044
308.15 K, m1 = 1.251 | 0.5978
308.15 K, m1 = 1.397 | 0.5934
308.15 K, m1 = 1.526 | 0.5906
